Experimental data from US20100311729A1, “Substituted imidazopyridazines and pyrrolopyrimidines as lipid kinase inhibitors” (priority 2007, published 2010).

Experiments:
[1] = molecular target: T1, PI3K gamma (Homo sapiens, UniProt P48736); assay: PI3 kinase assay (Kinase-Glo luminescence), PI3K gamma; format: biochemical; details: Enzymatic Data; read-out: PI3K gamma IC50 [umol]
T1 construct: PI3Kγ BV-950 p110g(D144aa)-C-Term His Tag; His tag (C); made in house; host or cells: construct from the Roger Williams lab (MRC LMB) in pVL1393; baculovirus; Tn5 (Trichoplusia ni) or TiniPro insect cells
How it was run: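 Kinase-Glo luminescence assay with 1 μM ATP and 10 μg/mL phosphatidylinositol (final), reaction started by ATP addition. IC50 from 4-parameter logistic fit of percent inhibition at 8 compound concentrations (usually 10 down to 0.003 […]).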

[2] = molecular target: T2, PI3K delta (Homo sapiens, UniProt O00329); assay: PI3 kinase assay (Kinase-Glo luminescence), PI3K delta; format: biochemical; details: Enzymatic Data; read-out: PI3K delta IC50 [umol]
T2 construct: for the full-length p110-d subunit are generated and fused by overlapping PCR; His tag (C); made in house; host or cells: baculovirus; Tn5 (Trichoplusia ni) or TiniPro insect cells
How it was run: (§1)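 Recombinant PI3K constructs (alfa 10 nM, delta 10 nM, gamma 150 nM) with 1 μM ATP and 10 μg/mL phosphatidylinositol in Tris pH 7.5, MgCl2, NaCl, CHAPS, DTT; 60 min (alfa, delta) or 120 min (gamma) at room temperature. ATP depletion read by Kinase-Glo luminescence; IC50 from 4-parameter logistic fit over 8 concentrations.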

[3] = molecular target: T3, PI3K beta (Homo sapiens, UniProt P42338); assay: PI3 kinase assay (Kinase-Glo luminescence), PI3K beta; format: biochemical; details: Enzymatic Data; read-out: PI3K beta IC50 [umol]
T3 construct: for the full-length p110-b subunit are generated and fused by overlapping PCR; His tag (C); made in house; host or cells: baculovirus; Tn5 (Trichoplusia ni) or TiniPro insect cells
How it was run: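 PI3Kβ (25 nM, BV-949) with 10 μg/mL phosphatidylinositol in Tris pH 7.5/MgCl2/NaCl/CHAPS/DTT buffer; reaction started with 1 μM ATP, 60 min at room temperature. ATP depletion read by Kinase-Glo luminescence; 8-point dilutions, IC50 by four-parameter logistic fit.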

[4] = molecular target: T4, PI3K alfa (Homo sapiens, UniProt P42336); assay: PI3 kinase assay (Kinase-Glo luminescence), PI3K alfa; format: biochemical; details: Enzymatic Data; read-out: PI3K alfa IC50 [umol]
T4 construct: for the p110-a subunit (with a deletion of the first 20 amino acids); His tag (C); made in house; host or cells: baculovirus; Tn5 (Trichoplusia ni) or TiniPro insect cells
How it was run: as §1

T3 sequence (P42338 with tags, fused parts or gaps limits assumed): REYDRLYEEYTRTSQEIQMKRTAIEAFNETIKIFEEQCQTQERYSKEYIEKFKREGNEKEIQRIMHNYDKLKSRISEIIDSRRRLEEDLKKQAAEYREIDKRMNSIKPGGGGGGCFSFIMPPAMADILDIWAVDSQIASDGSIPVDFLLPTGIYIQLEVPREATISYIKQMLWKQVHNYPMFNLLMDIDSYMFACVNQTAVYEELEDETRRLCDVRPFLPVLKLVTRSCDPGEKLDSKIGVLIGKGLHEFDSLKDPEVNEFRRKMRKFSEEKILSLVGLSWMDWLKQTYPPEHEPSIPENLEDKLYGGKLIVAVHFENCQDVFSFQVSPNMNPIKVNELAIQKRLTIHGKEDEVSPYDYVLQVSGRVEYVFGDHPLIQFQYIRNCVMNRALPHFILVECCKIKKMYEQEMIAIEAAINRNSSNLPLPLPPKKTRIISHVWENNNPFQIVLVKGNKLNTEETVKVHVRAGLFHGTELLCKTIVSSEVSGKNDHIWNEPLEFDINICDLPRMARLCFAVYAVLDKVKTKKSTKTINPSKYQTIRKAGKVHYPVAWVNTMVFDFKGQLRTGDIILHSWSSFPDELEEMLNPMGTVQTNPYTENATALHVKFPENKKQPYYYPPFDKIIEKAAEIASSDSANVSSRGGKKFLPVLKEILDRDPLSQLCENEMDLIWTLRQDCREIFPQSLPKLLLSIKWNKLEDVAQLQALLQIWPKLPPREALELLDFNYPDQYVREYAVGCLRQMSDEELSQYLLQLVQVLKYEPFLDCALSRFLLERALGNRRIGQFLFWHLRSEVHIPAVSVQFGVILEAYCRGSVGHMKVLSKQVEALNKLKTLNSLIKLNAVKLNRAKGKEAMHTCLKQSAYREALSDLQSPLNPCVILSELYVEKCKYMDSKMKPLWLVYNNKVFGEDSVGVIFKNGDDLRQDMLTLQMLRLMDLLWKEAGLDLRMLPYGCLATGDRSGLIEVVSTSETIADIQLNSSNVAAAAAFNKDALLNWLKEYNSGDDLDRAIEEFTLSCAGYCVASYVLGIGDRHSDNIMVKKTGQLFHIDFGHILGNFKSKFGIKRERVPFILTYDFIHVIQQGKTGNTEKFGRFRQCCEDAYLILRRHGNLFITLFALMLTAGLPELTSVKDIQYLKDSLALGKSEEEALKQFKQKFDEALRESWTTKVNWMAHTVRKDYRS
T1 sequence (P48736 144-1102 limits assumed): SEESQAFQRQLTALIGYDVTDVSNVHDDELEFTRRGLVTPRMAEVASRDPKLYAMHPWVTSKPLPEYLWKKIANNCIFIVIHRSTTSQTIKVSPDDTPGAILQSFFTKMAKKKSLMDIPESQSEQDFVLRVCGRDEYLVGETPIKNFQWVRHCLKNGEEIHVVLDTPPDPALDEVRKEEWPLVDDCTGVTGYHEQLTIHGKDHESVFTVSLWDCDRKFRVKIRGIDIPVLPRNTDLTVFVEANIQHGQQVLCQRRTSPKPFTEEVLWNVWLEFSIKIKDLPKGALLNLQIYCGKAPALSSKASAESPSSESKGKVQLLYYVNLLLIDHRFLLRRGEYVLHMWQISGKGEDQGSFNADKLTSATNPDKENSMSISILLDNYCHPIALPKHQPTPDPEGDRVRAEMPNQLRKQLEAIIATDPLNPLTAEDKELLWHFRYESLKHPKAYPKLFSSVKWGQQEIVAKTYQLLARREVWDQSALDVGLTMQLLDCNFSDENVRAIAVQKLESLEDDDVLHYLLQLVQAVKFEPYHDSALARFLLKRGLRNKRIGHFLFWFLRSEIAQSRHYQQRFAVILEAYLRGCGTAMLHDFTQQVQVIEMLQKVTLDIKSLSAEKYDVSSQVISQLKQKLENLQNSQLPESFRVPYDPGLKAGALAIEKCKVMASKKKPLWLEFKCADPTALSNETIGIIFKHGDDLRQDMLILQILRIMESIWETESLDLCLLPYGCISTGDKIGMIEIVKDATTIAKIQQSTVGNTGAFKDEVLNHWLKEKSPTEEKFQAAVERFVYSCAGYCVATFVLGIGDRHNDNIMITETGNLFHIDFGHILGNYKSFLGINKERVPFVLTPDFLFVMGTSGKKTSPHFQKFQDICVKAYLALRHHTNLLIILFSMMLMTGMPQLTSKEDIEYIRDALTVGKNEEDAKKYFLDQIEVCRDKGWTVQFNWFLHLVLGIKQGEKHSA
T2 sequence (O00329 with tags, fused parts or gaps limits assumed): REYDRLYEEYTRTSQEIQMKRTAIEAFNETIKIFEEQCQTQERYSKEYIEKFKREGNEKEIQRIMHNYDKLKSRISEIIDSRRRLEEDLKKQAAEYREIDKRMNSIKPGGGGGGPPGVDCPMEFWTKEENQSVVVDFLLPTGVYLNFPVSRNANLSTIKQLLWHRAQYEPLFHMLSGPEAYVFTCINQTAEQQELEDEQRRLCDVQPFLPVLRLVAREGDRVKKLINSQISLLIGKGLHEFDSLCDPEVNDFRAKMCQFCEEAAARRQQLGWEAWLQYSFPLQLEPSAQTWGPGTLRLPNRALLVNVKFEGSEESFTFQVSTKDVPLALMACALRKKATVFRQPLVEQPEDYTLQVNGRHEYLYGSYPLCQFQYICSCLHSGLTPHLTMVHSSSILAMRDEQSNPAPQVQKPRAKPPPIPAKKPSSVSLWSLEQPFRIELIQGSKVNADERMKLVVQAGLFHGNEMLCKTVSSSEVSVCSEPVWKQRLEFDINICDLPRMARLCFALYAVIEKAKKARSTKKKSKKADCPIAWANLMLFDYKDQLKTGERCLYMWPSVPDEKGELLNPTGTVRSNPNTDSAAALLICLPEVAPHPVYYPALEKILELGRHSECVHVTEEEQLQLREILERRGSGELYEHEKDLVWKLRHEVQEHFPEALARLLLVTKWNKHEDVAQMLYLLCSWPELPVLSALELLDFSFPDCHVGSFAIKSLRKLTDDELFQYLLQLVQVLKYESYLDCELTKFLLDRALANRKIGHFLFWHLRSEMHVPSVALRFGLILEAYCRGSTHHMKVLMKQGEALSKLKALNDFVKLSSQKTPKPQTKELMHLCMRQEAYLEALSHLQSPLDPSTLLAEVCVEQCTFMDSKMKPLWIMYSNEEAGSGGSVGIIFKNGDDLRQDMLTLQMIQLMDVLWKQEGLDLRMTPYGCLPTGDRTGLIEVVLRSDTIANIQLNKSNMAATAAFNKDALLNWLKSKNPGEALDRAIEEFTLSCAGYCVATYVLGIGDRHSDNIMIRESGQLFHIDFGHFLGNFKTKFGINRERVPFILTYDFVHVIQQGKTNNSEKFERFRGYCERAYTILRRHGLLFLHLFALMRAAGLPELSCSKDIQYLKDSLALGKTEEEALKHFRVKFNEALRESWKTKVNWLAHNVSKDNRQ
T4 sequence (P42336 with tags, fused parts or gaps limits assumed): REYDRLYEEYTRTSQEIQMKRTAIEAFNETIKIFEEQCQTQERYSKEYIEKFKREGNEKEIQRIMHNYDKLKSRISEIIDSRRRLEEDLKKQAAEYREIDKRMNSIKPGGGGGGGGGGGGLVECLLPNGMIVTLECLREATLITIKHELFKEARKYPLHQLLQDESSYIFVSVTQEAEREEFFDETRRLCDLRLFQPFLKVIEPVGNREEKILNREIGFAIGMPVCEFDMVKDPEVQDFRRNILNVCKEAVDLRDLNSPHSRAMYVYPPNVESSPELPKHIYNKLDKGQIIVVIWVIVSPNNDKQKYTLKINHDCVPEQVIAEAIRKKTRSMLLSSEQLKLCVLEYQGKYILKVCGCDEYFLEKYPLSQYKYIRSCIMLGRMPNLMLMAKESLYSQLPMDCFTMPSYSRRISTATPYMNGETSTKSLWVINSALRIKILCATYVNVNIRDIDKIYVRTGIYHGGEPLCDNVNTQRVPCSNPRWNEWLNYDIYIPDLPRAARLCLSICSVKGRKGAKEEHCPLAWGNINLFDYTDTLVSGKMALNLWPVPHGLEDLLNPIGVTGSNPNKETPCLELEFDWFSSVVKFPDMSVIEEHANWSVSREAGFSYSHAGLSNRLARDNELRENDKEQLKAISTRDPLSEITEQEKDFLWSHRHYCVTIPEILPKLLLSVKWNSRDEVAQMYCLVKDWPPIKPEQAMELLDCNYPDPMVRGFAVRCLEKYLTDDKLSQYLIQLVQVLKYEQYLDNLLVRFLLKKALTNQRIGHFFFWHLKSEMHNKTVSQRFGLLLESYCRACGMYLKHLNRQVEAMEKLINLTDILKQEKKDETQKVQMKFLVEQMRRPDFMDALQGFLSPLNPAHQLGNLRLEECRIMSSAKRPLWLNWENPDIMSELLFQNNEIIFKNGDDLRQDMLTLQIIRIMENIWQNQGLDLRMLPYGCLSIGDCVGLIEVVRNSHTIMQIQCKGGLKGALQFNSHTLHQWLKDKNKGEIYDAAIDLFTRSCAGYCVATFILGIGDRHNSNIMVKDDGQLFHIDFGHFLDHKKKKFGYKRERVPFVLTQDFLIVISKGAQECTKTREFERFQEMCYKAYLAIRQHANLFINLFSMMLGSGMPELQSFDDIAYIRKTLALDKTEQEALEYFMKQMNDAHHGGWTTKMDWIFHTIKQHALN

SMILES | IC50 [1] [nM] | IC50 [2] [nM] | IC50 [3] [nM] | IC50 [4] [nM] | melting point [°C]
Nc1ncc(-c2ccc3ncc(-c4ccc(CN5CCC(C(=O)N6CCCC6)CC5)cc4)n3n2)cc1C(F)(F)F [Example 181] | 1080 | 16 | 180 | 12 | 209 to 211
CC(C)C(=O)NCC1(COc2ccc(-c3ccc4ncc(-c5cnc(N)c(C(F)(F)F)c5)n4n3)cc2)COC1 [Example 167] | 2040 | 231 | 1480 | 35 | 205 to 207
